According to patent publication US8952024B2, “Herbicidal pyrimidone derivatives” (E I du Pont de Nemours and Company, priority 2009, dated 2015):

Experiments:
Assay in all cases: Test B pre-/postemergence plant response
Type in all cases: in vivo
[1] = system: yellow nutsedge (Cyperus esculentus)
Summary of the method: (§1)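 Compound in solvent + surfactant applied pre-em (loam/sand) or post-em (plants 2–18 cm, peat medium); greenhouse hold 13–15 days; visual 0–100 control score.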

[2] = system: velvetleaf (Abutilon theophrasti)
Summary of the method: as §1

[3] = system: downy bromegrass (Bromus tectorum)
Summary of the method: as §1

[4] = system: Italian ryegrass (Lolium multiflorum)
Summary of the method: as §1

[5] = system: ragweed (common ragweed, Ambrosia elatior)
Summary of the method: as §1

[6] = system: goosegrass (Eleusine indica)
Summary of the method: as §1

[7] = system: Surinam grass (Brachiaria decumbens)
Summary of the method: as §1

corn (Zea mays) = system: corn (Zea mays)
Summary of the method: as §1

[8] = system: woolly cupgrass (Eriochloa villosa)
Summary of the method: as §1

[9] = system: large crabgrass (Digitaria sanguinalis)
Summary of the method: as §1

[10] = system: lambsquarters (Chenopodium album)
Summary of the method: as §1

[11] = system: blackgrass (Alopecurus myosuroides)
Summary of the method: as §1

[12] = system: johnsongrass (Sorghum halepense)
Summary of the method: as §1

kochia (Kochia scoparia) = system: kochia (Kochia scoparia)
Summary of the method: as §1

[13] = system: giant foxtail (Setaria faberii)
Summary of the method: as §1

[14] = system: bermudagrass (Cynodon dactylon)
Summary of the method: as §1

[15] = system: green foxtail (Setaria viridis)
Summary of the method: as §1

[16] = 31 g ai/ha, postemergence, scale 0 to 100, 0 is no effect, 100 is complete control
[17] = 62 g ai/ha, postemergence, 0 is no effect, 100 is complete control, 13 to 15 days
[18] = Postemergence, 125 g ai/ha, visual rating after 13 to 15 days, scale 0 (no effect) to 100 (complete control)
[19] = Postemergence, 250 g ai/ha, scale 0 to 100 (0 no effect, 100 complete control)
[20] = Preemergence, 31 g ai/ha, scale 0 to 100 (0 no effect, 100 complete control)
[21] = Preemergence, 62 g ai/ha, scale 0 to 100, 0 no effect, 100 complete control
[22] = Preemergence, 125 g ai/ha, scale 0 to 100, 0 no effect, 100 complete control
[23] = 250 g ai/ha, Preemergence, 0 to 100 scale

CCCc1ncc(C(=O)C2=C(O)CCCC2=O)c(=O)n1CCC [Compound 72]
90: Plant response rating, Ragweed [5, 18] | Plant response rating, Crabgrass, Large [9, 19] | Plant response rating, Lambsquarters [10, 16] | Plant response rating, Kochia (kochia (Kochia scoparia); [18]) | Plant response rating, Kochia (kochia (Kochia scoparia); [19]) | Plant response rating, Foxtail, Green [15, 23] | Plant response rating, Foxtail, Green [15, 18] | Plant response rating, Foxtail, Green [15, 19]
65: Nutsedge, Yellow plant response rating (0 to 100 scale) [1, 17] | Plant response rating, Nutsedge, Yellow [1, 18] | Goosegrass plant response rating (0 to 100 scale) [6, 17] | Plant response rating, Goosegrass [6, 18] | Plant response rating, Cupgrass, Woolly [8, 23] | Plant response rating, Foxtail, Giant [13, 16] | Plant response rating, Foxtail, Giant [13, 23]
85: Plant response rating, Crabgrass, Large [9, 18] | Kochia plant response rating (0 to 100 scale) (kochia (Kochia scoparia); [17]) | Plant response rating, Kochia (kochia (Kochia scoparia); [23]) | Plant response rating, Kochia (kochia (Kochia scoparia); [22]) | Plant response rating, Bermudagrass [14, 18] | Plant response rating, Bermudagrass [14, 19]
100: Velvetleaf plant response rating (0 to 100 scale) [2, 17] | Plant response rating, Velvetleaf [2, 18] | Plant response rating, Velvetleaf [2, 19] | Plant response rating, Velvetleaf [2, 21] | Plant response rating, Velvetleaf [2, 22] | Plant response rating, Goosegrass [6, 23] | Plant response rating, Goosegrass [6, 22] | Plant response rating, Surinam Grass [7, 19] | Plant response rating, Crabgrass, Large [9, 23] | Plant response rating, Crabgrass, Large [9, 21] | Plant response rating, Crabgrass, Large [9, 22] | Lambsquarters plant response rating (0 to 100 scale) [10, 17] | Plant response rating, Lambsquarters [10, 23] | Plant response rating, Lambsquarters [10, 18] | Plant response rating, Lambsquarters [10, 19] | Plant response rating, Bermudagrass [14, 23]
70: Plant response rating, Nutsedge, Yellow [1, 21] | Plant response rating, Ragweed [5, 21] | Plant response rating, Goosegrass [6, 19] | Foxtail, Giant plant response rating (0 to 100 scale) [13, 17] | Foxtail, Green plant response rating (0 to 100 scale) [15, 17]
40: Plant response rating, Nutsedge, Yellow [1, 20] | Plant response rating, Johnsongrass [12, 18]
50: Plant response rating, Cupgrass, Woolly [8, 18] | Plant response rating, Cupgrass, Woolly [8, 19] | Plant response rating, Foxtail, Green [15, 22]
30: Plant response rating, Ryegrass, Italian [4, 19]
60: Plant response rating, Goosegrass [6, 16] | Plant response rating, Goosegrass [6, 20]
55: Plant response rating, Ragweed [5, 20]
98: Plant response rating, Velvetleaf [2, 16] | Plant response rating, Velvetleaf [2, 20] | Plant response rating, Goosegrass [6, 21] | Plant response rating, Lambsquarters [10, 20] | Plant response rating, Lambsquarters [10, 21] | Plant response rating, Lambsquarters [10, 22] | Plant response rating, Bermudagrass [14, 21] | Plant response rating, Bermudagrass [14, 22]
0: Plant response rating, Bromegrass, Downy [3, 16] | Bromegrass, Downy plant response rating (0 to 100 scale) [3, 17] | Plant response rating, Bromegrass, Downy [3, 23] | Plant response rating, Bromegrass, Downy [3, 18] | Plant response rating, Bromegrass, Downy [3, 20] | Plant response rating, Bromegrass, Downy [3, 21] | Plant response rating, Bromegrass, Downy [3, 22] | Plant response rating, Ryegrass, Italian [4, 16] | Ryegrass, Italian plant response rating (0 to 100 scale) [4, 17] | Plant response rating, Ryegrass, Italian [4, 20] | Plant response rating, Ryegrass, Italian [4, 21] | Plant response rating, Ryegrass, Italian [4, 22] | Plant response rating, Corn (corn (Zea mays); [16]) | Corn plant response rating (0 to 100 scale) (corn (Zea mays); [17]) | Plant response rating, Corn (corn (Zea mays); [23]) | Plant response rating, Corn (corn (Zea mays); [20]) | Plant response rating, Corn (corn (Zea mays); [21]) | Plant response rating, Corn (corn (Zea mays); [22]) | Plant response rating, Cupgrass, Woolly [8, 20] | Plant response rating, Cupgrass, Woolly [8, 21] | Plant response rating, Blackgrass [11, 16] | Blackgrass plant response rating (0 to 100 scale) [11, 17] | Plant response rating, Blackgrass [11, 18] | Plant response rating, Blackgrass [11, 19] | Plant response rating, Blackgrass [11, 20] | Plant response rating, Blackgrass [11, 21] | Plant response rating, Blackgrass [11, 22] | Plant response rating, Johnsongrass [12, 16] | Plant response rating, Johnsongrass [12, 20] | Plant response rating, Johnsongrass [12, 21] | Plant response rating, Johnsongrass [12, 22] | Plant response rating, Foxtail, Giant [13, 20] | Plant response rating, Foxtail, Green [15, 20] | Plant response rating, Foxtail, Green [15, 21]
45: Plant response rating, Surinam Grass [7, 20] | Plant response rating, Cupgrass, Woolly [8, 16] | Cupgrass, Woolly plant response rating (0 to 100 scale) [8, 17] | Plant response rating, Cupgrass, Woolly [8, 22] | Plant response rating, Johnsongrass [12, 19] | Plant response rating, Kochia (kochia (Kochia scoparia); [20])
10: Plant response rating, Ryegrass, Italian [4, 18] | Plant response rating, Corn (corn (Zea mays); [19]) | Johnsongrass plant response rating (0 to 100 scale) [12, 17] | Plant response rating, Johnsongrass [12, 23] | Plant response rating, Foxtail, Giant [13, 22] | Plant response rating, Foxtail, Green [15, 16]
20: Plant response rating, Bromegrass, Downy [3, 19]
35: Plant response rating, Nutsedge, Yellow [1, 16]
5: Plant response rating, Corn (corn (Zea mays); [18]) | Plant response rating, Blackgrass [11, 23] | Plant response rating, Foxtail, Giant [13, 21]
80: Ragweed plant response rating (0 to 100 scale) [5, 17] | Plant response rating, Ragweed [5, 22] | Surinam Grass plant response rating (0 to 100 scale) [7, 17] | Plant response rating, Surinam Grass [7, 18] | Crabgrass, Large plant response rating (0 to 100 scale) [9, 17] | Plant response rating, Foxtail, Giant [13, 19] | Bermudagrass plant response rating (0 to 100 scale) [14, 17]
95: Plant response rating, Ragweed [5, 19] | Plant response rating, Crabgrass, Large [9, 20] | Plant response rating, Bermudagrass [14, 20]
75: Plant response rating, Nutsedge, Yellow [1, 19] | Plant response rating, Nutsedge, Yellow [1, 22] | Plant response rating, Ragweed [5, 16] | Plant response rating, Surinam Grass [7, 16] | Plant response rating, Surinam Grass [7, 21] | Plant response rating, Surinam Grass [7, 22] | Plant response rating, Crabgrass, Large [9, 16] | Plant response rating, Kochia (kochia (Kochia scoparia); [16]) | Plant response rating, Kochia (kochia (Kochia scoparia); [21]) | Plant response rating, Foxtail, Giant [13, 18] | Plant response rating, Bermudagrass [14, 16]
